Experimental data taken from patent US20240383875A1, “Benzimidazole Pyridine Derivatives” (Hoffmann-La Roche Inc., priority 2022, published 2024).

What was measured:
Type in all cases: biochemical
[1] = biological target: SIK2 (Homo sapiens, UniProt Q9H0K1); experiment: Enzymatic activity assay SIK2, RapidFire mass spectrometry (phosphorylation of CHK-peptide); settings: RapidFire MS, inhibition of SIK2; read-out: SIK2 RF IC50
Method in brief: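 Read-out is the summed phospho-species fraction of CHK-peptide by RapidFire mass spectrometry, normalized between DMSO and 1 μM YKL-05-099. The reaction used 0.5 nM SIK2, 100 μM ATP and 10 μM peptide solutions in HEPES pH 7.0/10 mM magnesium acetate for 45 min at ambient temperature.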

[2] = biological target: SIK3 (Homo sapiens, UniProt Q9Y2K2); experiment: Enzymatic activity assay SIK3, RapidFire mass spectrometry (phosphorylation of CHK-peptide); settings: RapidFire MS, inhibition of SIK3; read-out: SIK3 RF IC50
Method in brief: (§1)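 Human SIK1/2/3, 5/0.5/1.5 nM; 12.5 mM HEPES pH 7.0, 10 mM Mg acetate, 0.005% BSA. 30 min cpd pre-inc, + CHK-peptide (10 μM soln) + ATP (100 μM soln), 45 min RT. Formic acid stop; RF-MS phospho ratio; IC50.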

[3] = biological target: SIK1 (Homo sapiens, UniProt P57059); experiment: Enzymatic activity assay SIK1, RapidFire mass spectrometry (phosphorylation of CHK-peptide); settings: RapidFire MS, inhibition of SIK1; read-out: SIK1 RF IC50
Method in brief: as §1

SIK2, sequence (Q9H0K1 whole entry): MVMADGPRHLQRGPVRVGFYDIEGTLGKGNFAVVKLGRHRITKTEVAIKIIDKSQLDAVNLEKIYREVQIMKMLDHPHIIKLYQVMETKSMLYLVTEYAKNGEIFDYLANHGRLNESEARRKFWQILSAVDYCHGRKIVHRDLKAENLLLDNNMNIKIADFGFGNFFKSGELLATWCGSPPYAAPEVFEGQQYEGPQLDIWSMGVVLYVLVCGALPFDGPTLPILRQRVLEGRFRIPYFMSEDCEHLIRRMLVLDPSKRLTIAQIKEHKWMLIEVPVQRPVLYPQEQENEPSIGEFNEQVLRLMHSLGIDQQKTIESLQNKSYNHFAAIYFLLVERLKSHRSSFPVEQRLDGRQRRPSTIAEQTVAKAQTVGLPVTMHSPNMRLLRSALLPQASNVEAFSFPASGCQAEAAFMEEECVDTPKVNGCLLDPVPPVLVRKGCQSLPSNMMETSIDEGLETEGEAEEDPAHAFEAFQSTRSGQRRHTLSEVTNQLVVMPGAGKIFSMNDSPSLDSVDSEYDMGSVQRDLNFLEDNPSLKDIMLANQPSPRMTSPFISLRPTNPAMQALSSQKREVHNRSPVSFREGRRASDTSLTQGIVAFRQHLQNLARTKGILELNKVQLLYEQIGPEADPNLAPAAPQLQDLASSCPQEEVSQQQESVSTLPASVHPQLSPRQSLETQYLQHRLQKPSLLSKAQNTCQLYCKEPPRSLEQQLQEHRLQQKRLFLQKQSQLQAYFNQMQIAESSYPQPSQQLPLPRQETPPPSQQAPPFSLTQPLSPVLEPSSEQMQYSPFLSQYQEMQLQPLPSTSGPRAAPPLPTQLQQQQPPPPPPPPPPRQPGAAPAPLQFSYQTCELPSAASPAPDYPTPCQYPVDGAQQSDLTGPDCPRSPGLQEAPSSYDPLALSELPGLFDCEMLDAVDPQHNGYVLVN
SIK1, sequence (P57059 whole entry): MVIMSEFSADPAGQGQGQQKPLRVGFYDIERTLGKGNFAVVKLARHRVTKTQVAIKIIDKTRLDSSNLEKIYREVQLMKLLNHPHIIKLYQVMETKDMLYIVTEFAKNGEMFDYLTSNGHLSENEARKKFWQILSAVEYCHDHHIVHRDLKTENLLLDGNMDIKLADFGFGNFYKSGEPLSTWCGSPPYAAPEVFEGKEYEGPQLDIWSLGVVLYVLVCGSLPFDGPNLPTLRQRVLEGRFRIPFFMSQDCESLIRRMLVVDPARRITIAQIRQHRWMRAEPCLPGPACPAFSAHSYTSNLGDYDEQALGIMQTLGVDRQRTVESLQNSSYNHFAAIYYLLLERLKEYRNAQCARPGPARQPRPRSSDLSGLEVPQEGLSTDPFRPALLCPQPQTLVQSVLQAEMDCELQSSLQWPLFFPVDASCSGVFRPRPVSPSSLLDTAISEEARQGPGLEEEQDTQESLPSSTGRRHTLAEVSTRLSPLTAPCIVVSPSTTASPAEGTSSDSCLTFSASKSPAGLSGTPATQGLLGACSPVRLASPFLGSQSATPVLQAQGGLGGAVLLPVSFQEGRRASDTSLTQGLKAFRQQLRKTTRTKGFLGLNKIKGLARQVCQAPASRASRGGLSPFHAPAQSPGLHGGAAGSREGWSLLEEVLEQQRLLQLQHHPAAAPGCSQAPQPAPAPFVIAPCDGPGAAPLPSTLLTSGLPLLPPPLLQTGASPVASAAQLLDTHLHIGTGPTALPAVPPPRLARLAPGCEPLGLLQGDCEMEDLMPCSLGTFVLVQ
SIK3, sequence (Q9Y2K2 whole entry): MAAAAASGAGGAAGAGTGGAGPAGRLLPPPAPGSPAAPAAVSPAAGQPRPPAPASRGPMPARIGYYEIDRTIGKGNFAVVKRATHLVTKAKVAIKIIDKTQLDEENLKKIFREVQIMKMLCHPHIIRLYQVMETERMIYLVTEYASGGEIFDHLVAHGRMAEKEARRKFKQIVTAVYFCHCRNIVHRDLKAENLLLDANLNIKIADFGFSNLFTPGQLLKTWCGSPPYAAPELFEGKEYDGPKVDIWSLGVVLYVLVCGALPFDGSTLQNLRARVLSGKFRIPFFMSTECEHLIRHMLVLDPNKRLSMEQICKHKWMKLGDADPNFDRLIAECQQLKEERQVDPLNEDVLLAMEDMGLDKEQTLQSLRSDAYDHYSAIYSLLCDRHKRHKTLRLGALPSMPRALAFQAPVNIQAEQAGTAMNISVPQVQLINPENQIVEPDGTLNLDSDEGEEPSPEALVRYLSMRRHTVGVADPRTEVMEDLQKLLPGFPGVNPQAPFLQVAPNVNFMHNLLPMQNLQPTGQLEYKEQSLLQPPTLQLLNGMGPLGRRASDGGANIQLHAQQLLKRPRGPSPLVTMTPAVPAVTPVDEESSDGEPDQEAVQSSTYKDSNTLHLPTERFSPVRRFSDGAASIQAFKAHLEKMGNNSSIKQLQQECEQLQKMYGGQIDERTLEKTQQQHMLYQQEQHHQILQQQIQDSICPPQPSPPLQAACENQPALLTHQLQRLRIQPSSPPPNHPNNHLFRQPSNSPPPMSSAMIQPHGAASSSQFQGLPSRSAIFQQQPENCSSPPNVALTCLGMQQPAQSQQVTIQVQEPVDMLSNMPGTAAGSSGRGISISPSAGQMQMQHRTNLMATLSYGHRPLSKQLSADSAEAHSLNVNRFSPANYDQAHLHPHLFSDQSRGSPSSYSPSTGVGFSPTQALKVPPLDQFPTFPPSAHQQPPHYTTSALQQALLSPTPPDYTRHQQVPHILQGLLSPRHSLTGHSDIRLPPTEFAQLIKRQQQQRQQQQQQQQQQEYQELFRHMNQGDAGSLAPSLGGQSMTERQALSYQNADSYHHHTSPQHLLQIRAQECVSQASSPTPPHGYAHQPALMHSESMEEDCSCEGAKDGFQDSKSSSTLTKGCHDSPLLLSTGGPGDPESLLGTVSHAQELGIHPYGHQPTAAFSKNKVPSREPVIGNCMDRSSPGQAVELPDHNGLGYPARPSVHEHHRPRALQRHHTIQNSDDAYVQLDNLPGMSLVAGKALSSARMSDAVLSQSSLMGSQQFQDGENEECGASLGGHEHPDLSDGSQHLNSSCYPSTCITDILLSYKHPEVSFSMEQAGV

| IC50 [1] [µM] | IC50 [2] [µM] | IC50 [3] [µM] | Compound |
| --- | --- | --- | --- |
| 0.0163 | 0.0024 | 0.966 | Cc1ccc(Nc2ccc3c(c2)ncn3-c2ccc(C(C)O)c(N3CC4CC3CC4(F)F)n2)nn1 (stereo not drawn) [Example 322, 1-[2-(5,5-difluoro-2-azabicyclo[2.2.1]heptan-2-yl)-6-[5-[(6-methylpyridazin-3-yl)amino]benzimidazol-1-yl]-3-pyridyl]ethanol] |
| 0.0021 | 0.0019 | 0.167 | Cc1ccc(Nc2ccc3c(c2)ncn3-c2ccc(C(C)O)c(-c3cnn(CC(C)(F)F)c3C)n2)nn1 (stereo not drawn) [Example 284, 1-[2-[1-(2,2-difluoropropyl)-5-methyl-pyrazol-4-yl]-6-[5-[(6-methylpyridazin-3-yl)amino]benzimidazol-1-yl]-3-pyridyl]ethanol] |
| 0.0023 | 0.0018 | 0.462 | Cc1ccc(Nc2cc3ncn(-c4ccc(C(C)O)c(-n5nc(C(F)F)cc5C(F)F)n4)c3cc2F)nn1 (stereo not drawn) [Example 387, 1-[2-[3,5-bis(difluoromethyl)pyrazol-1-yl]-6-[6-fluoro-5-[(6-methylpyridazin-3-yl)amino]benzimidazol-1-yl]-3-pyridyl]ethanol] |
| 0.0004 | 0.0008 | 0.007 | Cc1ccc(Nc2cc3ncn(-c4ccc(C(C)O)c(-n5nc(C#N)cc5C)n4)c3cc2OC2COC2)nn1 (stereo not drawn) [Example 282, 1-[3-(1-hydroxyethyl)-6-[5-[(6-methylpyridazin-3-yl)amino]-6-(oxetan-3-yloxy)benzimidazol-1-yl]-2-pyridyl]-5-methyl-pyrazole-3-carbonitrile] |
| 0.0085 | 0.0036 | 1.22 | Cc1cc(C(F)F)nn1-c1nc(-n2cnc3cc(Nc4ccc(Cl)nn4)c(F)cc32)ccc1C(C)O (stereo not drawn) [Example 372, 1-[6-[5-[(6-chloropyridazin-3-yl)amino]-6-fluoro-benzimidazol-1-yl]-2-[3-(difluoromethyl)-5-methyl-pyrazol-1-yl]-3-pyridyl]ethanol] |
| 0.0202 | 0.0032 | 1.57 | Cc1ccc(Nc2ccc3c(c2)ncn3-c2ccc(C(C)O)c(-n3nc(C(F)F)nc3C)n2)nn1 (stereo not drawn) [Example 344, 1-[2-[3-(difluoromethyl)-5-methyl-1,2,4-triazol-1-yl]-6-[5-[(6-methylpyridazin-3-yl)amino]benzimidazol-1-yl]-3-pyridyl]ethanol] |
| 0.0796 | 0.0856 | 0.25 | Cc1cc(C#N)nn1-c1nc(-n2cnc3cc(N4CCCC4C(=O)N(C)C)ccc32)ccc1C(C)O (stereo not drawn) [Example 312, 1-[1-[6-(3-cyano-5-methyl-pyrazol-1-yl)-5-(1-hydroxyethyl)-2-pyridyl]benzimidazol-5-yl]-N,N-dimethyl-pyrrolidine-2-carboxamide] |
| 0.006 | 0.0087 | 0.998 | Cc1ccc(Nc2cc3ncn(-c4ccc([C@@H](C)O)c(-n5nc(OC(F)F)cc5C)n4)c3cc2F)nn1 [Example 375, (1R)-1-[2-[3-(difluoromethoxy)-5-methyl-pyrazol-1-yl]-6-[6-fluoro-5-[(6-methylpyridazin-3-yl)amino]benzimidazol-1-yl]-3-pyridyl]ethanol] |
| 0.0196 | 0.235 | 0.01 | Cc1cc(C#N)nn1-c1nc(-n2cnc3ccc(N4CCCC45COC5)cc32)ccc1C(C)O (stereo not drawn) [Example 295, 1-[3-(1-hydroxyethyl)-6-[6-(2-oxa-5-azaspiro[3.4]octan-5-yl)benzimidazol-1-yl]-2-pyridyl]-5-methyl-pyrazole-3-carbonitrile] |
| 0.0501 | 0.065 | 0.327 | Cc1cc(C(F)F)nn1-c1nc(-n2cnc3cc(N4C[C@H]5OCCN(C)[C@H]5C4)ccc32)ccc1CO [Example 318, [6-[5-[(4aS,7aR)-4-methyl-2,3,4a,5,7,7a-hexahydropyrrolo[3,4-b][1,4]oxazin-6-yl]benzimidazol-1-yl]-2-[3-(difluoromethyl)-5-methyl-pyrazol-1-yl]-3-pyridyl]methanol] |
| 0.0653 | 0.0095 | 4.86 | Cc1ccc(Nc2ccc3c(c2)ncn3-c2ccc(C(C)O)c(N3CCOC(C(F)(F)F)C3)n2)nn1 (stereo not drawn) [Example 320, 1-[6-[5-[(6-methylpyridazin-3-yl)amino]benzimidazol-1-yl]-2-[2-(trifluoromethyl)morpholin-4-yl]-3-pyridyl]ethanol] |

More lines, now with the values behind:

| Compound | IC50 [1] [µM] | IC50 [2] [µM] | IC50 [3] [µM] |
| --- | --- | --- | --- |
| Cc1ccc(Nc2ccc3c(c2)ncn3-c2ccc(C(C)O)c(-n3ncc(C#N)c3C)n2)nn1 (stereo not drawn) [Example 151, 1-[3-(1-Hydroxyethyl)-6-[5-[(6-methylpyridazin-3-yl)amino]benzimidazol-1-yl]-2-pyridyl]-5-methyl-pyrazole-4-carbonitrile] | 4.71 | 1.88 | 13.6 |
| Cc1ccc(Nc2ccc3c(c2)ncn3-c2ccc(C(C)O)c(-c3cn(C(F)F)nc3C)n2)nn1 (stereo not drawn) [Example 149, 1-[2-[1-(Difluoromethyl)-3-methyl-pyrazol-4-yl]-6-[5-[(6-methylpyridazin-3-yl)amino]benzimidazol-1-yl]-3-pyridyl]ethanol] | 0.0084 | 0.0019 | 1.29 |
| Cc1ccc(Oc2ccc3ncn(-c4ccc(C(C)O)c(-n5nc(C#N)cc5C)n4)c3c2)nn1 (stereo not drawn) [Example 74, 1-[3-(1-Hydroxyethyl)-6-[6-(6-methylpyridazin-3-yl)oxybenzimidazol-1-yl]-2-pyridyl]-5-methyl-pyrazole-3-carbonitrile] | 0.0366 | 0.19 | 0.045 |
| Cc1ccc(Nc2ccc3c(c2)ncn3-c2ccc(C(C)O)c(NCC3(C#N)CC3)n2)nn1 (stereo not drawn) [Example 116, 1-[[[3-(1-Hydroxyethyl)-6-[5-[(6-methylpyridazin-3-yl)amino]benzimidazol-1-yl]-2-pyridyl]amino]methyl]cyclopropanecarbonitrile; formic acid] | 0.0471 | 0.0096 | 1.61 |
| Cc1ccc(Nc2ccc3ncn(-c4ccc(C(C)O)c(-n5nc(C(F)(F)F)c6c5CCNC6)n4)c3c2)nn1 (stereo not drawn) [Example 98, 1-[6-[6-[(6-Methylpyridazin-3-yl)amino]benzimidazol-1-yl]-2-[3-(trifluoromethyl)-4,5,6,7-tetrahydropyrazolo[4,3-c]pyridin-1-yl]-3-pyridyl]ethanol] | 0.0042 | 0.0134 | 0.005 |
| Cc1ccc(Nc2ccc3c(c2)ncn3-c2ccc(C(C)O)c(-n3cc(C#N)c(C)n3)n2)nn1 (stereo not drawn) [Example 182, 1-[3-(1-Hydroxyethyl)-6-[5-[(6-methylpyridazin-3-yl)amino]benzimidazol-1-yl]-2-pyridyl]-3-methyl-pyrazole-4-carbonitrile] | 0.0889 | 0.0257 | 15.4 |
| Cc1cc(C#N)nn1-c1nc(-n2cnc3cc(Nc4ccon4)ccc32)ccc1C(C)O (stereo not drawn) [Example 123, 1-[3-(1-Hydroxyethyl)-6-[5-(isoxazol-3-ylamino)benzimidazol-1-yl]-2-pyridyl]-5-methyl-pyrazole-3-carbonitrile] | 0.0099 | 0.0059 | 0.013 |
| COc1cc2ncn(-c3ccc([C@H](C)O)c(-c4ccn(C)c(=O)c4)n3)c2cc1OC [Example 41, (S)-6-(5,6-Dimethoxy-1H-benzo[d]imidazol-1-yl)-3-(1-hydroxyethyl)-1′-methyl-[2,4′-bipyridin]-2′(1′H)-one] | 0.0917 | 0.3 | 0.197 |
| CNc1ncccc1-c1nc(-n2cnc3cc(Nc4ccc(C)nn4)ccc32)ccc1C(C)O (stereo not drawn) [Example 179, 1-[2-[2-(Methylamino)-3-pyridyl]-6-[5-[(6-methylpyridazin-3-yl)amino]benzimidazol-1-yl]-3-pyridyl]ethanol; formic acid] | 0.414 | 0.0743 | > 30 |
| Cc1ccc(Nc2ccc3c(c2)ncn3-c2ccc(C(C)O)c(-c3occc3C#N)n2)nn1 (stereo not drawn) [Example 226, 2-[3-(1-Hydroxyethyl)-6-[5-[(6-methylpyridazin-3-yl)amino]benzimidazol-1-yl]-2-pyridyl]furan-3-carbonitrile] | 0.0621 | 0.0217 | > 30 |
| COc1cc2ncn(-c3ccc([C@@H](C)O)c(-c4ccccc4C(N)=O)n3)c2cc1OC [Example 36, (R)-2-(6-(5,6-Dimethoxy-1H-benzo[d]imidazol-1-yl)-3-(1-hydroxyethyl)pyridin-2-yl)benzamide] | 9.68 | 13.6 | 23.9 |
| Cc1ccc(Nc2ccc3c(c2)ncn3-c2ccc(C(C)O)c(N3CCCS3(=O)=O)n2)nn1 (stereo not drawn) [Example 85, 1-[2-(1,1-dioxo-1,2-thiazolidin-2-yl)-6-[5-[(6-methylpyridazin-3-yl)amino]benzimidazol-1-yl]-3-pyridyl]ethanol] | 0.818 | 1.91 | 1.07 |
| COc1cc2ncn(-c3ccc([C@@H](C)O)c(-c4ccc(C#N)cc4)n3)c2cc1OC [Example 40, (R)-4-(6-(5,6-Dimethoxy-1H-benzo[d]imidazol-1-yl)-3-(1-hydroxyethyl)pyridin-2-yl)benzonitrile] | 0.517 | 1.66 | 1.03 |
| Cc1cc(C#N)nn1-c1nc(-n2cnc3cc(C#N)ccc32)ccc1C(C)O (stereo not drawn) [Example 263, 1-[6-(3-Cyano-5-methyl-pyrazol-1-yl)-5-(1-hydroxyethyl)-2-pyridyl]benzimidazole-5-carbonitrile] | 0.144 | 0.158 | 0.33 |
